The record followed here is ChEMBL document CHEMBL1629476, “Synthesis and biological evaluation of aminoketones” (2010).

Type in all cases: functional
In one assay the test system is Staphylococcus aureus. The experiment in a line: Antibacterial activity against Staphylococcus aureus after 16 hrs by serial dilution method.
Another assay concerns Bacillus subtilis. The assay is described as follows: Antibacterial activity against Bacillus subtilis after 16 hrs by serial dilution method.
A further assay relates to Pseudomonas aeruginosa. The assay is described as follows: Antibacterial activity against Pseudomonas aeruginosa after 16 hrs by serial dilution method.
A further assay concerns Escherichia coli. The experiment in a line: Antibacterial activity against Escherichia coli after 16 hrs by serial dilution method.

Converted amounts (≈) assume the structure as drawn.

By MIC is commonly meant the least concentration at which growth counts as inhibited.

As to `COc1ccc(F)c(C(Nc2ccc(F)cc2F)C2CCCCC2=O)c1` (stereo not drawn), the MIC turned out to be 3.12 µg/mL (≈ 8.6 µM) in the assay on Staphylococcus aureus, 1.61 µg/mL (≈ 4.44 µM) against Bacillus subtilis, 1.61 µg/mL (≈ 4.44 µM) in the assay on Pseudomonas aeruginosa and 1.61 µg/mL (≈ 4.44 µM) in the assay on Escherichia coli.

As for `CC(C)(C)c1ccc(NC(c2ccccc2)C2CCCCC2=O)cc1` (stereo not drawn), the MIC in the assay with Staphylococcus aureus came out at 6.25 µg/mL (≈ 18.6 µM); against Bacillus subtilis, 6.25 µg/mL (≈ 18.6 µM); in the assay on Pseudomonas aeruginosa, 6.25 µg/mL (≈ 18.6 µM); in the assay on Escherichia coli, 12.5 µg/mL (≈ 37.3 µM).

Consider `O=C1CCCCC1C(Nc1ccc(F)cc1F)c1ccc(F)cc1` (stereo not drawn), for which the MIC in the assay on Staphylococcus aureus, with Bacillus subtilis, with Pseudomonas aeruginosa and with Escherichia coli was 1.61 µg/mL (≈ 4.84 µM) in each case.

In the case of `N#Cc1ccc(NC(c2ccccc2Cl)C2CCCCC2=O)cc1` (stereo not drawn), the MIC against Staphylococcus aureus came out at 3.12 µg/mL (≈ 9.22 µM); against Bacillus subtilis, 1.61 µg/mL (≈ 4.76 µM); in the assay with Pseudomonas aeruginosa it was 1.61 µg/mL (≈ 4.76 µM); with Escherichia coli, 1.61 µg/mL (≈ 4.76 µM).

In the case of `O=C1CCCCC1C(Nc1ccc(F)c(F)c1)c1ccccc1F` (stereo not drawn), the minimal inhibitory concentration (MIC) in the assay on Staphylococcus aureus was 3.12 µg/mL (≈ 9.37 µM); in the assay with Bacillus subtilis, 1.61 µg/mL (≈ 4.84 µM); in the assay on Pseudomonas aeruginosa, 1.61 µg/mL (≈ 4.84 µM); in the assay on Escherichia coli, 1.61 µg/mL (≈ 4.84 µM).

As to `C=CCOc1ccccc1C(Nc1cccc(F)c1)C1CCCCC1=O` (stereo not drawn), the MIC in the assay with Staphylococcus aureus came out at 6.25 µg/mL (≈ 17.7 µM); against Bacillus subtilis, 3.12 µg/mL (≈ 8.84 µM); against Pseudomonas aeruginosa, 6.25 µg/mL (≈ 17.7 µM); against Escherichia coli it was 3.12 µg/mL (≈ 8.84 µM).

As for `COc1cccc(NC(c2cccc(C)c2O)C2CCCCC2=O)c1` (stereo not drawn), the MIC in the assay with Staphylococcus aureus, in the assay on Bacillus subtilis, with Pseudomonas aeruginosa and against Escherichia coli was 1.61 µg/mL (≈ 4.75 µM) throughout.

Regarding `CCc1ccc(C(Nc2cc(F)c(F)c(F)c2)C2CCCCC2=O)cc1` (stereo not drawn), the MIC against Staphylococcus aureus, against Bacillus subtilis, with Pseudomonas aeruginosa and against Escherichia coli was 12.5 µg/mL (≈ 34.6 µM) throughout.

Regarding `CCc1ccc(C(Nc2ccc(C)c([N+](=O)[O-])c2)C2CCCCC2=O)cc1` (stereo not drawn), the minimum inhibitory concentration (MIC) was determined as 6.25 µg/mL (≈ 17.1 µM) with Staphylococcus aureus, 6.25 µg/mL (≈ 17.1 µM) against Bacillus subtilis, 25 µg/mL (≈ 68.2 µM) against Pseudomonas aeruginosa and 6.25 µg/mL (≈ 17.1 µM) against Escherichia coli.

With `O=C1CCCCC1C(Nc1cccc2ccccc12)c1cc2ccccc2o1` (stereo not drawn), the MIC in the assay on Staphylococcus aureus was determined as 3.12 µg/mL (≈ 8.46 µM); in the assay with Bacillus subtilis, 3.12 µg/mL (≈ 8.46 µM); against Pseudomonas aeruginosa, 1.61 µg/mL (≈ 4.37 µM); with Escherichia coli, 1.61 µg/mL (≈ 4.37 µM).

As to `Cc1cc2cc(NC(c3ccncc3)C3CCCCC3=O)ccc2[nH]1` (stereo not drawn), the MIC was 3.12 µg/mL (≈ 9.37 µM) with Staphylococcus aureus, 1.61 µg/mL (≈ 4.84 µM) in the assay on Bacillus subtilis, 1.61 µg/mL (≈ 4.84 µM) against Pseudomonas aeruginosa and 1.61 µg/mL (≈ 4.84 µM) in the assay with Escherichia coli.

`CO/N=C(\C(=O)N[C@@H]1C(=O)N2C(C(=O)O)=C(CSc3nc(=O)c(O)nn3C)CS[C@H]12)c1csc(N)n1` [CEFTRIAXONE]: the MIC amounted to 3.12 µg/mL (≈ 5.63 µM) in the assay on Staphylococcus aureus, 1.61 µg/mL (≈ 2.91 µM) in the assay on Bacillus subtilis, 1.61 µg/mL (≈ 2.91 µM) in the assay with Pseudomonas aeruginosa and 1.61 µg/mL (≈ 2.91 µM) against Escherichia coli.
